# Assay results published in patent US20090238760A1, “ANTISPERMATOGENIC, SPERMICIDAL AND/OR ANTIFUNGAL COMPOSITION AND METHODS OF USING THE SAME” (Research Triangle Institute, priority 2006, published 2009).
# Like-named read-outs stand apart in the source and are kept apart here.
# Experiments:
# [1] = tested on: testes / spermatogenesis in rats; conditions: single oral dose of 30 mg/kg to rats, within 24 h; cited from earlier work
# [2] = tested on: spermatogenesis; conditions: oral administration to animals; cited from earlier work
# [3] = tested on: testes / spermatogenesis in Swiss (CD-1) mice; test: Spermatogenic Index test: testes weight and spermatogenic index after a single oral dose; assay type: in vivo, mouse; conditions: male CD-1 mice, mean ± SEM; for Spermatogenic Index: 72 h, scale 1 to 6, 5 to 6 normal, vehicle control 5.5 ± 0.16; for Testes Weight: killed 72 h later, vehicle control 204 ± 11.9
# Method: The compounds of the invention were tested in mice for their effects on spermatogenesis three days after a single oral dose by the procedure described in Cook et al (J. Med. […] Compounds active in this test have been shown also to be anti-fertility compounds. Compounds were screened for antispermatogenic activity by dosing male mice on day 1 with a gavage dose of control vehicle, positive control (compound 1) or compound of the invention. At 72 h after dosing, animals were killed and the testes were excised, trimmed of fat, and weighed. One testis was examined histologically and rated for spermatogenic potential using the Spermatogenic Index [[…]. Noden, J. Cherry and […]. Reprod. […], 72, 277 (1984)], which is a semiquantitative estimate of the sperm producing ability of the testes. The index is based on histological appearance of the spermatogenic cells in the seminiferous tubules. A scale of 1 to 6 is used with 5 to 6 being the normal status. A second assessment was based on the weight of the testes. […] Compounds were given orally to 8-week old male CD-1 mice in a single dose. Seventy-two hours later the animals were killed and the testes weighed. One testis was subjected to histological analysis and scored according to the Spermatogenic Index (SI) of Fail (see Cook et ah, J. Med. […] RTI-4587-056(l), and a vehicle control group was also analyzed.
# [4] = biological target: testes receptor (testis membranes); test: Displacement of [125I]074(d) from rat testis membranes (Scatchard / displacement binding assay)
# Method: • 1. […] Homogenize the tissue for 20 sec with a Polytron tissue homogenizer (probe no. PTA 10S, 12 mm) at a medium setting (4-6 on a rheostat scale of 10) or until a smooth suspension is obtained. • 4. Pour the homogenate into a chilled 50 ml, centrifuge tube, and centrifuge at 0-4° C. and 500×g ( 1540 rpm in an […]) for 10 min. • 5. Decant the supernatant into clean 10 ml, centrifuge tubes, using multiple tubes as necessary. • 6. Centrifuge the decanted supernatant at 0-4° C. and 17000×g ( 11900 rpm in a Sorvall SS-34 rotor) for 12 min. • 7. Decant and discard the supernatants. […] Perform a total protein assay on resuspended pellet. The […] assay measures the binding of a radiolabeled test compound, over a wide concentration range, to the membrane receptors in both the absence (total binding) and presence (non-specific binding) of non-radioactive compound. Calculation of the resulting assay data yields the Kd of the test compound. • 1. Label 1.2 mL polypropylene tubes in duplicate for each [^125I]074(d) standard total binding and non-specific binding (NSB) determination and place in 96-well matrix test tube racks. Label liquid scintillation vials for free radioactivity determination. • 2. Prepare dilutions of the [^125I]074(d) ranging in concentration from approximately 1 to 200 nM or other desired concentration range. Prepare cold drug at a concentration of at least 100 times the level of the highest level of radiolabeled standard (e.g. 20-40 µM) for NSB determination. • 3. Set up the assay as follows: • 4. […] Add 0.1 mL (200 μg) to each assay tube. Vortex to mix. • 5. Incubate assay at 25° C. for 2 hours while gently shaking at 30-35 rpm (e.g. Precision Scientific Reciprocal Shaker or equivalent). • 6. […] Near the end of the incubation period, place a blank wash plate in the cell harvester (model MPXR-96T, Brandel Scientific, Gaithersburg, Md.). Place cold wash buffer in the reservoir supplying the harvester. Prime the harvester with buffer. Replace the dummy filter plate with the pre-soaked plate. • 8. At the end of the incubation period, remove tubes from incubator. Place the harvester prongs into the tubes, and vacuum to deposit the reaction mixture onto the filter plate. Rinse the reaction tubes 3-4 times with cold buffer and vacuum through the filter plate. • 9. Remove the filter plate from the harvester and allow it to dry thoroughly, using a warm oven if desired. • 10. Seal the bottom of the plate. Insert the plate into the cocktail dispenser and add cocktail (Micro-Scint 20, Perkin Elmer LAS, Shelton, Conn.) to each well • 11. Seal the top of the plate. Allow the plate to sit at least one hour or overnight and then count. • 1. For each level of standard, determine the CP Ms of free (essentially equivalent to total radioactivity added), total bound, and non-specific bound (NSB) compound. • 2. Subtract the NSB CPMs from the corresponding total CP Ms for each standard level to determine specific bound for each standard level. • 3. Convert the free, specific bound and non-specific bound CPMs to a mass basis (e.g. pM) using the specific activity, counter efficiency for the isotope ( 70% for ^125I in a Packard Model 1900TR. Liquid Scintillation Analyzer) and assay dilution factor of the labeled material. • 4. For each standard level, divide the level of compound specifically bound by the corresponding free amount added. • 5. For […] analysis, perform a linear regression analysis where x=specific bound compound and y=ratio of corresponding specific bound/free compound added. • 6. The Kd=-1/slope of the line generated. • 7. For illustrative purposes, a binding isotherm graph can be generated where x=free compound and y=total bound, non-specific bound and specific bound compound. The displacement assay measures the ability of a test drug, over a wide concentration range, to compete with and displace a constant amount of a known radiolabeled drug bound to the testes receptor. Calculation of the resulting assay data yields the Ki of the test drug. • 1. […]
# [5] = tested on: testes / spermatogenesis in Swiss (CD-1) mice; conditions: in words, Cook et al., cited from earlier work
# [6] = average Ki, 25° C., 2 hours, for 074(d) the Ki is a Kd
# [7] = J. Med. Chem., 1997, 40, 2111-2112
compound,measurement,setting,value
CCN1CC[C@@H]2[C@@H](c3ccc(C)cc3)c3cc(C)ccc3[C@@H]2C1.Cl [Sandoz 20-438],weights of the testes,[1],drastically reducing
same,inhibition of spermatogenesis,[2],reversible inhibition of spermatogenesis
"CCN1CC[C@H]2[C@H](c3ccc(C(=O)OC)cc3)c3cc(C)c(C#Cc4ccccc4)cc3[C@H]2C1 [RTI-4587-109, (4aS, 5R,9bS)-5-(4-Carbomethoxyphenyl)-2-ethyl-2,3,4,4a,5,9b-hexahydro-7-methyl-8-(2-phenylethynyl)-1H-indeno[1,2-c]pyridine]",Spermatogenic Index,"[3]; single oral dose 20 mg/kg, n=5",4.26 ± 0.12
same,Testes Weight,"[3]; single oral dose 20 mg/kg, n=5",168.1 ± 16.4 mg
CCN1CC[C@@H]2[C@@H](c3ccc(C(=O)OC)cc3)c3cc(C)c(I)cc3[C@@H]2C1 [RTI-4587-073(d)],Ki,[4]; [6],67.3 µM
CCN1CCC2C(C1)c1ccc(C)cc1C2c1ccc(C(=O)OC)cc1 (stereo not drawn) [RTI-4587-056(d)],Ki,[4]; [6],207 µM
CCN1CC[C@H]2[C@H](c3ccc(C(=O)OC)cc3)c3cc(C)ccc3[C@H]2C1 [RTI-4587-056(l)],Spermatogenic Index,"[3]; single oral dose 30 mg/kg, n=4",3.69 ± 0.07
same,Testes Weight,"[3]; single oral dose 30 mg/kg, n=4",173 ± 8.8 mg
same,Ki,[4]; [6],2.7 µM
CCN1CCC2C(C1)c1ccc(C)cc1C2c1ccc(C)cc1 (stereo not drawn) [RTI-4587-002(d)],Ki,"[4]; as stated in the text, listed as -002(d)",6.1 µM
same,in vivo activity (antispermatogenic),"[5]; J. Med. Chem., 1997, 40, 2111-2112, listed as -002(d)",bioactive
CCN1CCC2C(C1)c1cc(I)c(C)cc1C2c1ccc(C(=O)O)cc1 (stereo not drawn) [RTI-4587-074(d)],Ki,[4]; [6],~0.027 µM
same,Ki,"[4]; average Ki, 25° C., 2 hours, for 074(d) the Ki is a Kd, listed as 074(d)",0.027 µM
same,in vivo activity (antispermatogenic),[5]; [7],much greater in vivo activity
CCN1CCC2C(C1)c1ccc(C)cc1C2c1ccc(C)cc1 (stereo not drawn) [RTI-4587-002(l)],Ki,"[4]; as stated in the text, listed as -002(l)",66 µM
same,Ki,[4]; [6],65.6 µM
same,in vivo activity (antispermatogenic),"[5]; J. Med. Chem., 1997, 40, 2111-2112, listed as -002(l)",bioinactive
"C#Cc1cc2c(cc1C)[C@@H](c1ccc(C(=O)OC)cc1)[C@@H]1CCN(CC)C[C@H]21 [RTI-4587-107, (4aS, 5R, 9bS)-5-(4-Carbomethoxyphenyl)-2-ethyl-8-ethynyl-2,3,4,4a,5,9b-hexahydro-7-methyl-1H-indeno[1,2-c]pyridine]",Spermatogenic Index,"[3]; single oral dose 20 mg/kg, n=5",1.56 ± 0.20
same,Testes Weight,"[3]; single oral dose 20 mg/kg, n=5",134.4 ± 7.0 mg
CCN1CCC2C(C1)c1ccc(C)cc1C2c1ccc(C(=O)O)cc1 (stereo not drawn) [RTI-4587-054(l)],Ki,[4],~330 µM
same,Ki,[4]; [6],329 µM
same,in vivo activity (antispermatogenic),[5]; [7],inactive
"CCN1CC[C@H]2[C@H](c3ccc(C(=O)OC)cc3)c3cc(C)c(I)cc3[C@H]2C1 [RTI-4587-073(l), (4aS, 5R, 9bS)-5-(4-Carbomethoxyphenyl)-2-ethyl-2,3,4,4a,5,9b-hexahydro-8-iodo-7-methyl-1H-indeno[1,2-c]pyridine]",Spermatogenic Index,"[3]; single oral dose 1 mg/kg, n=5",2.92 ± 0.15
same,Testes Weight,"[3]; single oral dose 1 mg/kg, n=5",144 ± 4.9 mg
same,Ki,[4]; [6],0.32 µM
CCN1CCC2C(C1)c1ccc(C)cc1C2c1ccc(C(=O)O)cc1 (stereo not drawn) [RTI-4587-054(d)],Ki,[4],~0.54 µM
same,Ki,[4]; [6],0.54 µM
